Source: ChEMBL document CHEMBL1127653, “Synthesis and anticholinergic activity of the four stereoisomers of 4-(dimethylamino)-2-phenyl-2-(2-pyridyl)pentanamide” (J Med Chem, 1994)

Species: Cavia porcellus
Assay: Inhibitory effect on acetylcholine-Induced contraction of Guinea pig iIeum
Format: functional
Details: not given

First: C[C@H](C[C@@](C(N)=O)(c1ccccc1)c1ccccn1)N(C)C (stereo in doubt; 12 (2R,4S))
Second: CC(CC(C(N)=O)(c1ccccc1)c1ccccn1)N(C)C (racemic; form 1) [VAMICAMIDE]
The IC50 of the first is 110-fold higher: 170000 nM for the first, 1500 nM for the second. The second is the more potent here.

Compared with C[C@H](C[C@@](C(N)=O)(c1ccccc1)c1ccccn1)N(C)C (stereo in doubt; 11 (2S,4S)), CC(CC(C(N)=O)(c1ccccc1)c1ccccn1)N(C)C (racemic; form 2) [VAMICAMIDE] is 54-fold lower in IC50: 31000 nM for the first, 570 nM for the second.

C[C@H](C[C@@](C(N)=O)(c1ccccc1)c1ccccn1)N(C)C (stereo in doubt; 13 (2S,4R)) gave an IC50 of 130 nM.
C[C@H](C[C@@](C(N)=O)(c1ccccc1)c1ccccn1)N(C)C (stereo in doubt; 10 (2R,4R)) showed an IC50 of 400 nM.

Same assay, conditions: Cavia porcellus

With CN(C)CCC(C(N)=O)(c1ccccc1)c1ccccn1 (configuration not stated) the IC50 was 8100 nM.
